# Key:
# PBP2 = target: T1, PBP2 (Pseudomonas aeruginosa, UniProt Q9X6V3); assay: PBP-binding affinity (IC50), bocillin FL, isolated membranes; set-up: species or system P. aeruginosa PAO1; conditions: PAO1 membranes 0.5 mg/mL, 30 min, 25 µM bocillin FL; read-out: Mean IC50 ± SD, PBP 2 (converted)
# T1 construct: PBP-containing membranes were isolated by ultracentrifugation; endogenous in cells; host or cells: P. aeruginosa PAO1 wild type (membrane preparations or intact cells)
# Protocol: (§1) PBP-binding affinity was determined using previously described methods. Briefly, P. aeruginosa PAO1 cultures grown to the midexponential phase (7.6 log10 CFU/mL) were incubated in CAMHB at 37 °C and 180 rpm, washed and centrifuged (3220× g for 10 min at 4 °C). Bacterial pellets were washed in 30 mL of PBS buffer (pH 7.5), resuspended in 10 mL of PBS and sonicated at 40% amplitude for three 2 min bursts (while immersed in an ice bath) and centrifuged at 3220× g for 15 min at 4 °C. PBP-containing membranes were isolated by ultracentrifugation at 150,000× g for 30 min at 4 °C. Total protein concentrations were measured through the Bradford method.
# (§2) Subsequently, the fluorescent penicillin bocillin FL was added to a 25 μM final concentration. Labeled PBPs were denatured and separated through 4–15% SDS–polyacrylamide gel electrophoresis. Labeled PBPs were visualized using a Typhoon FLA 9500 biomolecular imager (GE Healthcare Bio-Sciences AB, Uppsala, Sweden) (excitation at 488 nm and emission at 530 nm), and binding was determined from at least three independent experiments using ImageQuant TL software v8.1.0.0 (GE Healthcare Bio-Sciences AB, Uppsala, Sweden).
# PBP5/6 = PBP5/6 (Pseudomonas aeruginosa, UniProt G3XD74); assay: as above; set-up: species or system P. aeruginosa PAO1; conditions: PAO1 membranes 0.5 mg/mL, 30 min, 25 µM bocillin FL; read-out: Mean IC50 ± SD, PBP 5/6 (converted)
# Protocol: as §1, §2
# PBP1a = target: T2, PBP1a (Pseudomonas aeruginosa, UniProt Q07806); assay: as above; set-up: species or system P. aeruginosa PAO1; conditions: PAO1 membranes 0.5 mg/mL, 30 min, 25 µM bocillin FL; read-out: Mean IC50 ± SD, PBP 1a (converted)
# T2 construct: PBP-containing membranes were isolated by ultracentrifugation; endogenous in cells; host or cells: P. aeruginosa PAO1 wild type (membrane preparations or intact cells)
# Protocol: as §1, §2
# PBP1b = PBP1b (Pseudomonas aeruginosa, UniProt G3XD31); assay: as above; set-up: species or system P. aeruginosa PAO1; conditions: PAO1 membranes 0.5 mg/mL, 30 min, 25 µM bocillin FL
# Protocol: as §1, §2
# PBP4 = PBP4 (Pseudomonas aeruginosa, UniProt Q9HZG1); assay: as above; set-up: species or system P. aeruginosa PAO1; conditions: PAO1 membranes 0.5 mg/mL, 30 min, 25 µM bocillin FL; read-out: Mean IC50 ± SD, PBP 4 (converted)
# Protocol: as §1, §2
# [1] = tested on: ampC mRNA in 103-H8 (AmpC E247K; PDC-221, CAZ/AVI-resistant ST175 clinical isolate); assay: qRT-PCR quantification of AmpC induction; assay type: cell-based, P. aeruginosa; conditions: IPM 8, FOX 64, AVI 16 µg/mL, relative to strain basal t=0
# Protocol: (§3) Samples were taken at 0, 30 and 180 min. Total RNA was extracted with the RNeasy Mini Kit (Qiagen, Hilden, Germany) and treated with TURBO DNase (Thermo Fisher Scientific, Waltham, MA, USA) to remove contaminating DNA. Samples were afterwards normalized to 50 ng/µL.
# (§4) Normalized samples were then used for one-step reverse transcription and real-time PCR amplification using the QuantiTect SYBR green qRT-PCR kit (Qiagen, Hilden, Germany) in a CFX Connect Real-Time PCR System (Bio-Rad, Hercules, California, USA). Previously described primer pairs ACrnaF/ACrnaR and rpsL-1/rpsL-2 were used for the amplification of ampC and housekeeping gene rpsL, respectively. The mean values of relative mRNA expression (2^−ΔΔCt) obtained from at least two independent biological replicates and duplicate technical replicates were considered.
# [2] = tested on: ampC mRNA in 110-G8 (AmpC DelG229–E247; PDC-223, CAZ/AVI-resistant ST175 clinical isolate); assay: qRT-PCR quantification of AmpC induction; assay type: cell-based, P. aeruginosa; conditions: IPM 8, FOX 64, AVI 16 µg/mL, relative to strain basal t=0
# Protocol: as §3, §4
# [3] = tested on: ampC mRNA in wild-type PAO1; assay: qRT-PCR quantification of AmpC induction; assay type: cell-based, P. aeruginosa; conditions: IPM 8, FOX 64, AVI 16 µg/mL, relative to strain basal t=0
# Protocol: as §3, §4
# [4] = tested on: ampC mRNA in 109-E9 (CAZ/AVI-sensitive ST175 clinical isolate); assay: qRT-PCR quantification of AmpC induction; assay type: cell-based, P. aeruginosa; conditions: IPM 8, FOX 64, AVI 16 µg/mL, relative to strain basal t=0
# Protocol: as §3, §4
# [5] = tested on: ampC mRNA in PAΔdacB (PBP4 knockout mutant); assay: qRT-PCR quantification of AmpC induction; assay type: cell-based, P. aeruginosa; conditions: 180 min; IPM 8, FOX 64 µg/mL
# Protocol: as §3, §4
# [6] = tested on: ampC mRNA in 101-E5 (CAZ/AVI-sensitive ST175 clinical isolate); assay: qRT-PCR quantification of AmpC induction; assay type: cell-based, P. aeruginosa; conditions: IPM 8, FOX 64, AVI 16 µg/mL, relative to strain basal t=0
# Protocol: as §3, §4
# PBP3 = target: T3, PBP3 (Pseudomonas aeruginosa, UniProt G3XD46); assay: biochemical; assay type: binding, P. aeruginosa PAO1; conditions: PAO1 membranes 0.5 mg/mL, 30 min, 25 µM bocillin FL; read-out: Mean IC50 ± SD, PBP 3 (converted)
# T3 construct: PBP-containing membranes were isolated by ultracentrifugation; endogenous in cells; host or cells: P. aeruginosa PAO1 wild type (membrane preparations or intact cells)
# Protocol: as §1, §2
# PBP1b, sequence (G3XD31 entry or part of it): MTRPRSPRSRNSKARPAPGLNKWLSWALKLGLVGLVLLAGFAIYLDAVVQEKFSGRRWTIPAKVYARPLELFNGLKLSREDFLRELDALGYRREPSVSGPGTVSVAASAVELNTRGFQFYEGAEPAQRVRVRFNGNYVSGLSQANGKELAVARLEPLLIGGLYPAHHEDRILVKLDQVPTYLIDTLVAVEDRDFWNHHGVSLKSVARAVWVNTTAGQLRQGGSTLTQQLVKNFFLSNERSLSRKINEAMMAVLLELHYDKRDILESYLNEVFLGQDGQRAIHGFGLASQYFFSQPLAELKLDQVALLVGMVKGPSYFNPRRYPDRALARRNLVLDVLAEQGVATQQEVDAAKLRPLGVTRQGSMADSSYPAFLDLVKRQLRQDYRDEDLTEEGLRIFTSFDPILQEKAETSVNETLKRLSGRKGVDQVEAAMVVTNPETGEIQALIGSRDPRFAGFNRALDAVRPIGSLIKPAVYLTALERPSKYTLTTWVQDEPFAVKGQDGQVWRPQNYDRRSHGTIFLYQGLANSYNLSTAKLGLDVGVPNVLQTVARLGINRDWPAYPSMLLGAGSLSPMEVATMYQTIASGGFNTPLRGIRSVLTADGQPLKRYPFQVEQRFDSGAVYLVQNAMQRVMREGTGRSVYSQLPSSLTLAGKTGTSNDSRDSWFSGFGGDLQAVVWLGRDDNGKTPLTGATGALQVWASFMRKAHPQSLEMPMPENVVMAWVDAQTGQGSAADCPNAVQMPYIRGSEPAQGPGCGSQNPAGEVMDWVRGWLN
# PBP5/6, sequence (G3XD74 entry or part of it): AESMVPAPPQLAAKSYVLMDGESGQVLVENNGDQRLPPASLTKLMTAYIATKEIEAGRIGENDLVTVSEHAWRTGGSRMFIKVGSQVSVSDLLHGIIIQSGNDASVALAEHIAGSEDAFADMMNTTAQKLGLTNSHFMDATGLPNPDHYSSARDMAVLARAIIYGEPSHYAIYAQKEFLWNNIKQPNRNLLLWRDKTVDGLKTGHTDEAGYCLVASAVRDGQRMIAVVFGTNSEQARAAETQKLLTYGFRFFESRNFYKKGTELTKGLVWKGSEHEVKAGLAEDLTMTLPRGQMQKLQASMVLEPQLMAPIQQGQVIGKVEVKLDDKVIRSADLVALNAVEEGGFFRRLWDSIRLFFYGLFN
# T2 sequence (Q07806 whole entry): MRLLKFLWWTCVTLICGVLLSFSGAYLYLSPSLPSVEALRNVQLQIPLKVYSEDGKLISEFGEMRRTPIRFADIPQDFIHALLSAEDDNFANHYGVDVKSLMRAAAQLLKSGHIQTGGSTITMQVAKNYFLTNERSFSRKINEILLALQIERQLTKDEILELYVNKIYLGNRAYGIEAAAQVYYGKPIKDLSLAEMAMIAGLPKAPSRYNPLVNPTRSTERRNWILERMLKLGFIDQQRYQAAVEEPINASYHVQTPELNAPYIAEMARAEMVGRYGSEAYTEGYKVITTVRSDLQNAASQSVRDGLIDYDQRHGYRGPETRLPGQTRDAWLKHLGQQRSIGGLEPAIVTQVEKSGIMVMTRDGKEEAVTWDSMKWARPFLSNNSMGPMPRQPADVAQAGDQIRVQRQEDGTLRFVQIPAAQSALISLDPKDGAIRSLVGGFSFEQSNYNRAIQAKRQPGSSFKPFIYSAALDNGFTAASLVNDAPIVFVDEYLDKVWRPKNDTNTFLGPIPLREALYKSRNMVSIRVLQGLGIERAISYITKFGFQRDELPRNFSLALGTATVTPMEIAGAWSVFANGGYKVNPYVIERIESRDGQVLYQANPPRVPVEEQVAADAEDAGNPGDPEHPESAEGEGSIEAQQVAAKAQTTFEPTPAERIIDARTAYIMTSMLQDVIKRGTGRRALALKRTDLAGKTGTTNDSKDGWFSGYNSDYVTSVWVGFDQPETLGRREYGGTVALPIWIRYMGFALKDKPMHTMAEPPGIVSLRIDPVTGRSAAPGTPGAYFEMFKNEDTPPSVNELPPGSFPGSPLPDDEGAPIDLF
# T1 sequence (Q9X6V3 entry or part of it): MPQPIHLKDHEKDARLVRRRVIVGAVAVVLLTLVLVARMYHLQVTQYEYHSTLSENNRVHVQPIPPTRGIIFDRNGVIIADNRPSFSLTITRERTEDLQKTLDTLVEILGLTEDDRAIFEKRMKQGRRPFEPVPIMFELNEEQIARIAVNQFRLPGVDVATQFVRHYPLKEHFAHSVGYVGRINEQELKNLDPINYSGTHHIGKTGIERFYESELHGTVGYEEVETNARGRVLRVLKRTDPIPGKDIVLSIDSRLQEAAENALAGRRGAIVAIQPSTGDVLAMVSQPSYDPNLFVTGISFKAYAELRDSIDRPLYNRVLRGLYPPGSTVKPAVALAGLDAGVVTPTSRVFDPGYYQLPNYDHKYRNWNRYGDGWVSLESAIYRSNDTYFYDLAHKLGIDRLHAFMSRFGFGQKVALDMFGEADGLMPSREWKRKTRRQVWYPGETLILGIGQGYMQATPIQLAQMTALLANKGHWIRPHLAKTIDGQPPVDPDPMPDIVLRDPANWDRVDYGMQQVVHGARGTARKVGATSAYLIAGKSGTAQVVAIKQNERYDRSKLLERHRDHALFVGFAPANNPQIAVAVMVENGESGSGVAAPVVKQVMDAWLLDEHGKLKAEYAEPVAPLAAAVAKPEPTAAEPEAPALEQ
# PBP4, sequence (Q9HZG1 entry or part of it): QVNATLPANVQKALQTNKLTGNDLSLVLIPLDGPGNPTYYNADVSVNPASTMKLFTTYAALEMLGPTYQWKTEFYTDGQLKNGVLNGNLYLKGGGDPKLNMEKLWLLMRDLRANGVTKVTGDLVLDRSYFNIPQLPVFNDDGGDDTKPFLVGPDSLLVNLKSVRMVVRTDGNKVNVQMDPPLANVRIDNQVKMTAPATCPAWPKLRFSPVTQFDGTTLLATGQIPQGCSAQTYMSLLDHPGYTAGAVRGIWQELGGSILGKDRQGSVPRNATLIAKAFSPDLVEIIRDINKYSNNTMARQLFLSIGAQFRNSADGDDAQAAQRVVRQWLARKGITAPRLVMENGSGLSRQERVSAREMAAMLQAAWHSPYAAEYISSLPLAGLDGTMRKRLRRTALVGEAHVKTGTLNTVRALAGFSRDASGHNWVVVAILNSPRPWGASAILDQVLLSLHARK
# T3 sequence (G3XD46 whole entry): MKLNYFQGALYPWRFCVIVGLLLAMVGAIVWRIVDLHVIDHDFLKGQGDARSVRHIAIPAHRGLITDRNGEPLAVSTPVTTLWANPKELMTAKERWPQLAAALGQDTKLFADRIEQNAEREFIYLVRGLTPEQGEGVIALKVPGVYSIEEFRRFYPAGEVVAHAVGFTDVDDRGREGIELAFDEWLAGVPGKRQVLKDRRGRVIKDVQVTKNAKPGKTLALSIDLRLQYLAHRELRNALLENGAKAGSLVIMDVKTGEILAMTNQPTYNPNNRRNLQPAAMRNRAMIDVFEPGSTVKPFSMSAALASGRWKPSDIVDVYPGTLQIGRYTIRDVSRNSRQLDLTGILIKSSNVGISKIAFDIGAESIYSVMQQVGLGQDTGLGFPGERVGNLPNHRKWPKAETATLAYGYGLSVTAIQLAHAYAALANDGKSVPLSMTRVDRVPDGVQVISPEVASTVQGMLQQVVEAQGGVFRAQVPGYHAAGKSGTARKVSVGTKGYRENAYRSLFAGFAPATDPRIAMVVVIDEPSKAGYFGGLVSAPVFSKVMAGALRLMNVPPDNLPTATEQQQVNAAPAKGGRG
smiles,measurement,setting,value
CO[C@@]1(NC(=O)Cc2cccs2)C(=O)N2C(C(=O)O)=C(COC(N)=O)CS[C@@H]21 [Cefoxitin],IC50,PBP2,34.2 µM
same,IC50,PBP5/6,21.1 µM
same,IC50,PBP1a,18.2 µM
same,"Mean IC50 ± SD, PBP 1b",PBP1b,no PBP1b binding was detected
same,IC50,"PBP1b; read-out: Mean IC50 ± SD, PBP 1b (converted)",> 74.9 µM
same,IC50,PBP4,3.51 µM
same,Relative ampC expression,"[1]; 103-H8, 0 min",1.4
same,Relative ampC expression,"[1]; 103-H8, 30 min",14.0
same,Relative ampC expression,"[1]; 103-H8, 180 min",50 ± 36.5
same,Relative ampC expression,"[1]; 103-H8, 180 min, listed as FOX",50.0
same,Relative ampC expression,"[2]; 110-G8, 0 min",3.3
same,Relative ampC expression,"[2]; 110-G8, 30 min",51.8 ± 13.2
same,Relative ampC expression,"[2]; 110-G8, 30 min, listed as FOX",51.8
same,Relative ampC expression,"[2]; 110-G8, 180 min",29.2 ± 13.1
same,Relative ampC expression,"[2]; 110-G8, 180 min, listed as FOX",29.2
same,Relative ampC expression,"[3]; PAO1, 0 min",0.9
same,Relative ampC expression,"[3]; PAO1, 30 min",3100
same,Relative ampC expression,"[3]; PAO1, 180 min",2500
same,Relative ampC expression,"[4]; 109-E9, 0 min",0.9
same,Relative ampC expression,"[4]; 109-E9, 30 min",4.1
same,Relative ampC expression,"[4]; 109-E9, 180 min",8.8 ± 7.9
same,Relative ampC expression,"[4]; 109-E9, 180 min, listed as FOX",8.8
same,"ampC inducibility of PBP4 (dacB) mutant, fold lower than parental strain PAO1",[5],32 fold
same,Relative ampC expression,"[6]; 101-E5, 0 min",3.7
same,Relative ampC expression,"[6]; 101-E5, 30 min",1.7
same,Relative ampC expression,"[6]; 101-E5, 180 min",5.7 ± 2.8
same,Relative ampC expression,"[6]; 101-E5, 180 min, listed as FOX",5.7
same,IC50,PBP3,25 µM
C[C@@H](O)[C@H]1C(=O)N2C(C(=O)O)=C(SCCN=CN)C[C@H]12 [Imipenem],IC50,PBP2,< 0.835 µM
same,IC50,PBP5/6,1.67 µM
same,IC50,PBP1a,< 0.835 µM

# Source: paper PMC8002452, “Molecular Basis of AmpC β-Lactamase Induction by Avibactam in Pseudomonas aeruginosa: PBP Occupancy, Live Cell Binding Dynamics and Impact on Resistant Clinical Isolates Harboring PDC-X Variants” (International Journal of Molecular Sciences, 2021)
